In the oligonucleotide strings, read from the 5' end, every base follows the letter of its sugar. An asterisk marks phosphorothioate; unmarked linkages are phosphodiester. Other units and linkages are bracketed, terminal groups are in braces. A string of capitals states the bases alone. e = 2'-O-(2-methoxyethyl) (MOE); [5mC] = 5-methylcytosine; d = 2'-deoxy (DNA)
System: human Factor XI mRNA
Assay: Antisense inhibition in HepG2 cells by microwalk gapmers, 75 nM, lipofectin (Example 3)
Type: cell-based
Conditions: HepG2 cells, 75 nM, oligonucleotides targeted to nucleobases 738 to 762 of SEQ ID NO: 1
Method in brief: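 HepG2 cells (10,000 per well) were transfected with 75 nM gapmer using lipofectin and treated for about 24 h. Factor XI mRNA was quantified by real-time PCR, normalized to RiboGreen total RNA and expressed as percent inhibition versus untreated controls.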

Row | Substance | % inhibition of human Factor XI mRNA levels [%]
1 | 416832 (antisense e[5mC]*eA*eT*e[5mC]*e[5mC]*dG*dT*dG*d[5mC]*dA*dT*d[5mC]*dT*dT*dT*e[5mC]*eT*eT*eG*eG) [compound 416832] | 79
2 | 416831 (antisense eA*eT*e[5mC]*e[5mC]*eG*dT*dG*d[5mC]*dA*dT*d[5mC]*dT*dT*dT*d[5mC]*eT*eT*eG*eG*e[5mC]) [compound 416831] | 91

Same assay, conditions: HepG2 cells, 75 nM, oligonucleotides targeted to nucleobases 1018 to 1042 of SEQ ID NO: 1

Row | Substance | % inhibition of human Factor XI mRNA levels [%]
3 | 416985 (antisense eG*e[5mC]*dA*dA*d[5mC]*d[5mC]*dG*dG*dG*dA*dT*dG*dA*dT*dG*eA*eG*eT*eG*e[5mC]) [compound 416985] | 88
4 | 413474 (antisense eA*eG*e[5mC]*eA*eA*d[5mC]*d[5mC]*dG*dG*dG*dA*dT*dG*dA*dT*eG*eA*eG*eT*eG) [compound 413474] | 93

Same assay, conditions: HepG2 cells, 75 nM, oligonucleotides targeted to nucleobases 1062 to 1091 of SEQ ID NO: 1

Row | Substance | % inhibition of human Factor XI mRNA levels [%]
5 | 416993 (antisense e[5mC]*eT*dT*dT*dG*dA*dG*dA*dT*dT*d[5mC]*dT*dT*dT*dG*eG*eG*e[5mC]*e[5mC]*eA) [compound 416993] | 91
6 | 416842 (antisense eT*eG*eA*eG*eA*dT*dT*d[5mC]*dT*dT*dT*dG*dG*dG*d[5mC]*e[5mC]*eA*eT*eT*e[5mC]) [compound 416842] | 94
7 | 416989 (antisense eG*eA*dG*dA*dT*dT*d[5mC]*dT*dT*dT*dG*dG*dG*d[5mC]*d[5mC]*eA*eT*eT*e[5mC]*e[5mC]) [compound 416989] | 88
8 | 416991 (antisense eT*eT*dG*dA*dG*dA*dT*dT*d[5mC]*dT*dT*dT*dG*dG*dG*e[5mC]*e[5mC]*eA*eT*eT) [compound 416991] | 87
9 | 416986 (antisense eA*eT*dT*d[5mC]*dT*dT*dT*dG*dG*dG*d[5mC]*d[5mC]*dA*dT*dT*e[5mC]*e[5mC]*eT*eG*eG) [compound 416986] | 88
10 | 416917 (antisense eT*e[5mC]*eT*dT*dT*dG*dA*dG*dA*dT*dT*d[5mC]*dT*dT*dT*dG*dG*eG*e[5mC]*e[5mC]) [compound 416917] | 92

System: human Factor XI mRNA
Assay: Dose-dependent inhibition in HepG2 cells, lipofectin (Example 4)
Type: cell-based
Conditions: 9.375 nM, 16 hours
Protocol: (§1) Cells were plated at a density of 10,000 cells per well and transfected using lipofectin reagent with 9.375 nM, 18.75 nM, 37.5 nM and 75 nM concentrations of antisense oligonucleotide, as specified in Table 9. After a treatment period of approximately 16 hours, RNA was isolated from the cells and Factor XI mRNA levels were measured by quantitative real-time PCR. Human Factor XI primer probe set RTS 2966 was used to measure mRNA levels. Factor XI mRNA levels were adjusted according to total RNA content, as measured by RIBOGREEN®. Results are presented as percent inhibition of Factor XI, relative to untreated control cells.

Row | Substance | percent inhibition of Factor XI mRNA, relative to untreated control cells [%]
11 | 416985 (antisense eG*e[5mC]*dA*dA*d[5mC]*d[5mC]*dG*dG*dG*dA*dT*dG*dA*dT*dG*eA*eG*eT*eG*e[5mC]) [compound 416985] | 17
12 | 416993 (antisense e[5mC]*eT*dT*dT*dG*dA*dG*dA*dT*dT*d[5mC]*dT*dT*dT*dG*eG*eG*e[5mC]*e[5mC]*eA) [compound 416993] | 15
13 | 416842 (antisense eT*eG*eA*eG*eA*dT*dT*d[5mC]*dT*dT*dT*dG*dG*dG*d[5mC]*e[5mC]*eA*eT*eT*e[5mC]) [compound 416842] | 18
14 | 413474 (antisense eA*eG*e[5mC]*eA*eA*d[5mC]*d[5mC]*dG*dG*dG*dA*dT*dG*dA*dT*eG*eA*eG*eT*eG) [compound 413474] | 29
15 | 416989 (antisense eG*eA*dG*dA*dT*dT*d[5mC]*dT*dT*dT*dG*dG*dG*d[5mC]*d[5mC]*eA*eT*eT*e[5mC]*e[5mC]) [compound 416989] | 18

Same assay, conditions: 18.75 nM, 16 hours

Row | Substance | percent inhibition of Factor XI mRNA, relative to untreated control cells [%]
16 | 416985 (antisense eG*e[5mC]*dA*dA*d[5mC]*d[5mC]*dG*dG*dG*dA*dT*dG*dA*dT*dG*eA*eG*eT*eG*e[5mC]) [compound 416985] | 30
17 | 416993 (antisense e[5mC]*eT*dT*dT*dG*dA*dG*dA*dT*dT*d[5mC]*dT*dT*dT*dG*eG*eG*e[5mC]*e[5mC]*eA) [compound 416993] | 37
18 | 416842 (antisense eT*eG*eA*eG*eA*dT*dT*d[5mC]*dT*dT*dT*dG*dG*dG*d[5mC]*e[5mC]*eA*eT*eT*e[5mC]) [compound 416842] | 33
19 | 413474 (antisense eA*eG*e[5mC]*eA*eA*d[5mC]*d[5mC]*dG*dG*dG*dA*dT*dG*dA*dT*eG*eA*eG*eT*eG) [compound 413474] | 44
20 | 416989 (antisense eG*eA*dG*dA*dT*dT*d[5mC]*dT*dT*dT*dG*dG*dG*d[5mC]*d[5mC]*eA*eT*eT*e[5mC]*e[5mC]) [compound 416989] | 41

Same assay, conditions: 37.5 nM, 16 hours

Row | Substance | percent inhibition of Factor XI mRNA, relative to untreated control cells [%]
21 | 416985 (antisense eG*e[5mC]*dA*dA*d[5mC]*d[5mC]*dG*dG*dG*dA*dT*dG*dA*dT*dG*eA*eG*eT*eG*e[5mC]) [compound 416985] | 47
22 | 416993 (antisense e[5mC]*eT*dT*dT*dG*dA*dG*dA*dT*dT*d[5mC]*dT*dT*dT*dG*eG*eG*e[5mC]*e[5mC]*eA) [compound 416993] | 50
23 | 416842 (antisense eT*eG*eA*eG*eA*dT*dT*d[5mC]*dT*dT*dT*dG*dG*dG*d[5mC]*e[5mC]*eA*eT*eT*e[5mC]) [compound 416842] | 62
24 | 413474 (antisense eA*eG*e[5mC]*eA*eA*d[5mC]*d[5mC]*dG*dG*dG*dA*dT*dG*dA*dT*eG*eA*eG*eT*eG) [compound 413474] | 57
25 | 416989 (antisense eG*eA*dG*dA*dT*dT*d[5mC]*dT*dT*dT*dG*dG*dG*d[5mC]*d[5mC]*eA*eT*eT*e[5mC]*e[5mC]) [compound 416989] | 62

Same assay, conditions: 75 nM, 16 hours

Row | Substance | percent inhibition of Factor XI mRNA, relative to untreated control cells [%]
26 | 416985 (antisense eG*e[5mC]*dA*dA*d[5mC]*d[5mC]*dG*dG*dG*dA*dT*dG*dA*dT*dG*eA*eG*eT*eG*e[5mC]) [compound 416985] | 57
27 | 416993 (antisense e[5mC]*eT*dT*dT*dG*dA*dG*dA*dT*dT*d[5mC]*dT*dT*dT*dG*eG*eG*e[5mC]*e[5mC]*eA) [compound 416993] | 68
28 | 416842 (antisense eT*eG*eA*eG*eA*dT*dT*d[5mC]*dT*dT*dT*dG*dG*dG*d[5mC]*e[5mC]*eA*eT*eT*e[5mC]) [compound 416842] | 71
29 | 413474 (antisense eA*eG*e[5mC]*eA*eA*d[5mC]*d[5mC]*dG*dG*dG*dA*dT*dG*dA*dT*eG*eA*eG*eT*eG) [compound 413474] | 67
30 | 416989 (antisense eG*eA*dG*dA*dT*dT*d[5mC]*dT*dT*dT*dG*dG*dG*d[5mC]*d[5mC]*eA*eT*eT*e[5mC]*e[5mC]) [compound 416989] | 83

System: human Factor XI mRNA
Assay: Dose-dependent inhibition in HepG2 cells, electroporation (Example 4)
Type: cell-based
Conditions: 0.7 μM, 16 hours
Protocol: as §1, with “The gapmers were also transfected via electroporation and their dose dependent inhibition of human Factor XI mRNA was measured. Cells” for “Cells”, “20,000” for “10,000”, “via electroporation” for “using lipofectin reagent”, “0.7 μM, 2.2 μM, 6.7 μM,” for “9.375 nM, 18.75 nM, 37.5 nM”, “20 μM” for “75 nM”, “10.” for “9.”

Row | Substance | percent inhibition of Factor XI mRNA, relative to untreated control cells [%]
31 | 416985 (antisense eG*e[5mC]*dA*dA*d[5mC]*d[5mC]*dG*dG*dG*dA*dT*dG*dA*dT*dG*eA*eG*eT*eG*e[5mC]) [compound 416985] | 12
32 | 416993 (antisense e[5mC]*eT*dT*dT*dG*dA*dG*dA*dT*dT*d[5mC]*dT*dT*dT*dG*eG*eG*e[5mC]*e[5mC]*eA) [compound 416993] | 22
33 | 416842 (antisense eT*eG*eA*eG*eA*dT*dT*d[5mC]*dT*dT*dT*dG*dG*dG*d[5mC]*e[5mC]*eA*eT*eT*e[5mC]) [compound 416842] | 0
34 | 413474 (antisense eA*eG*e[5mC]*eA*eA*d[5mC]*d[5mC]*dG*dG*dG*dA*dT*dG*dA*dT*eG*eA*eG*eT*eG) [compound 413474] | 0
35 | 416989 (antisense eG*eA*dG*dA*dT*dT*d[5mC]*dT*dT*dT*dG*dG*dG*d[5mC]*d[5mC]*eA*eT*eT*e[5mC]*e[5mC]) [compound 416989] | 32

Same assay, conditions: 2.2 μM, 16 hours

Row | Substance | percent inhibition of Factor XI mRNA, relative to untreated control cells [%]
36 | 416985 (antisense eG*e[5mC]*dA*dA*d[5mC]*d[5mC]*dG*dG*dG*dA*dT*dG*dA*dT*dG*eA*eG*eT*eG*e[5mC]) [compound 416985] | 48
37 | 416993 (antisense e[5mC]*eT*dT*dT*dG*dA*dG*dA*dT*dT*d[5mC]*dT*dT*dT*dG*eG*eG*e[5mC]*e[5mC]*eA) [compound 416993] | 48
38 | 416842 (antisense eT*eG*eA*eG*eA*dT*dT*d[5mC]*dT*dT*dT*dG*dG*dG*d[5mC]*e[5mC]*eA*eT*eT*e[5mC]) [compound 416842] | 10
39 | 413474 (antisense eA*eG*e[5mC]*eA*eA*d[5mC]*d[5mC]*dG*dG*dG*dA*dT*dG*dA*dT*eG*eA*eG*eT*eG) [compound 413474] | 5
40 | 416989 (antisense eG*eA*dG*dA*dT*dT*d[5mC]*dT*dT*dT*dG*dG*dG*d[5mC]*d[5mC]*eA*eT*eT*e[5mC]*e[5mC]) [compound 416989] | 65

Same assay, conditions: 6.7 μM, 16 hours

Row | Substance | percent inhibition of Factor XI mRNA, relative to untreated control cells [%]
41 | 416985 (antisense eG*e[5mC]*dA*dA*d[5mC]*d[5mC]*dG*dG*dG*dA*dT*dG*dA*dT*dG*eA*eG*eT*eG*e[5mC]) [compound 416985] | 45
42 | 416993 (antisense e[5mC]*eT*dT*dT*dG*dA*dG*dA*dT*dT*d[5mC]*dT*dT*dT*dG*eG*eG*e[5mC]*e[5mC]*eA) [compound 416993] | 87
43 | 416842 (antisense eT*eG*eA*eG*eA*dT*dT*d[5mC]*dT*dT*dT*dG*dG*dG*d[5mC]*e[5mC]*eA*eT*eT*e[5mC]) [compound 416842] | 66
44 | 413474 (antisense eA*eG*e[5mC]*eA*eA*d[5mC]*d[5mC]*dG*dG*dG*dA*dT*dG*dA*dT*eG*eA*eG*eT*eG) [compound 413474] | 52
45 | 416989 (antisense eG*eA*dG*dA*dT*dT*d[5mC]*dT*dT*dT*dG*dG*dG*d[5mC]*d[5mC]*eA*eT*eT*e[5mC]*e[5mC]) [compound 416989] | 88

Same assay, conditions: 20 μM, 16 hours

Row | Substance | percent inhibition of Factor XI mRNA, relative to untreated control cells [%]
46 | 416985 (antisense eG*e[5mC]*dA*dA*d[5mC]*d[5mC]*dG*dG*dG*dA*dT*dG*dA*dT*dG*eA*eG*eT*eG*e[5mC]) [compound 416985] | 69
47 | 416993 (antisense e[5mC]*eT*dT*dT*dG*dA*dG*dA*dT*dT*d[5mC]*dT*dT*dT*dG*eG*eG*e[5mC]*e[5mC]*eA) [compound 416993] | 92
48 | 416842 (antisense eT*eG*eA*eG*eA*dT*dT*d[5mC]*dT*dT*dT*dG*dG*dG*d[5mC]*e[5mC]*eA*eT*eT*e[5mC]) [compound 416842] | 92
49 | 413474 (antisense eA*eG*e[5mC]*eA*eA*d[5mC]*d[5mC]*dG*dG*dG*dA*dT*dG*dA*dT*eG*eA*eG*eT*eG) [compound 413474] | 81
50 | 416989 (antisense eG*eA*dG*dA*dT*dT*d[5mC]*dT*dT*dT*dG*dG*dG*d[5mC]*d[5mC]*eA*eT*eT*e[5mC]*e[5mC]) [compound 416989] | 94

Reference: patent US20120083522A1, “MODULATION OF INFLAMMATORY RESPONSES BY FACTOR XI” (Isis Pharmaceuitcals, inc., priority 2009, published 2012)
